The subject of test [1] is db mice (C57BL/KsOlahsd-Leprdb, diabetic). Nature of the test: Acute response of db mice to RUP3 agonist (blood glucose). It is filed as in vivo. As to conditions: male db mice; 1 μg/kg, intraperitoneally; FIG. 5B. The procedure:
B. […] Male db mice (C57BL/KsOlahsd-Leprdb, diabetic, Harlan) at age of 10 weeks were randomly grouped (n=6) to receive vehicle (oral gavage), Compound B70 (60 mg/kg, oral gavage), or Ex-4 (1 μg/kg, intraperitoneally). After compound administration, food was removed and blood glucose levels were determined at indicated times as shown in FIG. 5B. Reduction in blood glucose at each time point was expressed as percentage of original glucose levels, averaged from six animals for each group.

In another test the test system is isolated rat islets. Nature of the test: Stimulation of insulin secretion in isolated rat islets. It is filed as cell-based. The following applies: 10 μM concentration, enhancement comparable to 25 nM GLP-1, FIG. 4D. The procedure:
E. Stimulation of Insulin Secretion in Isolated Rat Islets
As with HIT-T15 cells, it is known that stimulation of cAMP in isolated rat islets causes an increase in insulin secretion when the glucose concentration in the culture media is changed from 60 mg/dl to 300 mg/dl. RUP3 is an endogenously expressed GPCR in the insulin-producing cells of rat islets. Thus, RUP3 ligands can also be tested for their ability to stimulate GSIS in rat islet cultures. This assay is performed as follows: • A. Select 75-150 islet equivalents (IEQ) for each assay condition using a dissecting microscope. Incubate overnight in low-glucose culture medium. (Optional.) • B. Divide the islets evenly into triplicate samples of 25-40 islet equivalents per sample. Transfer to 40 μm mesh sterile cell strainers in wells of a 6-well plate with 5 ml of low (60 mg/dl) glucose Krebs-Ringers Buffer (KRB) assay medium. • C. Incubate 30 minutes (1 hour if overnight step skipped) at 37° C. and 5% CO2. Save the supernatants if a positive control for the RIA is desired. • D. Move strainers with islets to new wells with 5 ml/well low glucose KRB. […] Freeze and store at <−20° C. until insulin concentrations can be determined. • I. Insulin determinations are done as above, or by Linco Labs as a custom service, using their rat insulin RIA (Cat. #RI-13K). […]

For the next test, the target named is T1, RUP3 (Homo sapiens, UniProt Q8TDV5).
T1 construct: seen in the listing only (N); seen in the listing only (C); expressed in transfected cells
T1 sequence (Q8TDV5 with tags, fused parts or gaps): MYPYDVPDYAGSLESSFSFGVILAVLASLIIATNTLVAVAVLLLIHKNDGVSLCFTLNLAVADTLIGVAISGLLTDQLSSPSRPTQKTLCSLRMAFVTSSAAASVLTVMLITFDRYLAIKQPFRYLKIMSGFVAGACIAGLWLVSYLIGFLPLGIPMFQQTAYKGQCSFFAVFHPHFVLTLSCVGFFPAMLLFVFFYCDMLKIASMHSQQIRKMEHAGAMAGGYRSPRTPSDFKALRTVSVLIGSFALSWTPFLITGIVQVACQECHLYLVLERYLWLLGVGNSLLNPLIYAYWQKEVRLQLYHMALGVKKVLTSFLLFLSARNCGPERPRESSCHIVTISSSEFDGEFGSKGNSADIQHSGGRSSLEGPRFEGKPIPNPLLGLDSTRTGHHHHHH
Nature of the test: 96-Well Cyclic AMP Membrane Assay for RUP3 (Membrane Cyclase Assay). It is filed as biochemical. The following applies: RUP3 membranes, cAMP Flashplate. On the procedure:
96-Well Cyclic AMP Membrane Assay for RUP3
Binding Buffer—filter through […] Nalgene filter and keep in refrigerator. All buffers and membranes should be kept cold (in ice bucket) while performing assay. • 20 mM Hepes, pH7.4 • 1 mM MgCl2 • 100 mM NaCl • 2× Regeneration Buffer (make in binding buffer): • 20 mM Phosphocreatine (1.02 gm/200 ml binding buffer) • 20 units Creatine phosphokinase (4 mg/200 ml) • 20 uM GTP (make up 10.46 mg/ml in binding buffer and add 200 ul/200 ml) • 0.2 mM ATP (22.04 mg/200 ml) • […] IBMX (44.4 mg IBMX dissolved in 1 ml 100% DMSO first and then add the entire amount to 200 ml of buffer).
Regeneration buffer can be aliquotted into 40-45 ml portions (in 50 ml sterile tubes) and kept frozen for up to 2 months. Simply put the tube in a beaker with room temperature water to thaw out the regeneration buffer on the day of the assay. […]
IC50s or EC50s are done in triplicate. […] The membranes are kept in ice all the time, and a polytron (Brinkmann polytron, model #PT-3100) is used (setting 6-7, for 15-20 seconds) to obtain a homogeneous membrane suspension.) Protein concentration is determined by Bradford protein assay kit using instructions given in the kit, using the standard supplied with the kit as a reference. […]

Test [2] concerns HIT-T15 cells. Nature of the test: Stimulation of cAMP in HIT-T15 cells. Format: cell-based, hamster. The following applies: compared with adenyl cyclase activator forskolin, FIG. 4B. On the procedure:
C. Stimulation of cAMP in HIT-T15 Cells
HIT-T15 (ATCC CRL#1777) is an immortalized hamster insulin-producing cell line. These cells express RUP3 and therefore can be used to assess the ability of RUP3 ligands to stimulate or inhibit cAMP accumulation via its endogenously expressed receptor. In this assay, cells are grown to 80% confluence and then distributed into a 96-well Flashplate (50,000 cells/well) for detection of cAMP via a “cAMP Flashplate Assay” (NEN, Cat #SMP004). Briefly, cells are placed into anti-cAMP antibody-coated wells that contain either vehicle, the test ligand(s) at a concentration of interest, or 1 uM forskolin. The latter is a direct activator of adenylyl cyclase and serves as a positive control for stimulation of cAMP in HIT-T15 cells. All conditions are tested in triplicate. After ail hour incubation to allow for stimulation of cAMP, a Detection Mix containing ^125I-cAMP is added to each well and the plate is allowed to incubate for another 1 hour. The wells are then aspirated to remove unbound ^125I-cAMP. Bound ^125I-cAMP is detected using a Wallac Microbeta Counter. The amount of cAMP in each sample is determined by comparison to a standard curve, obtained by placing known concentrations of cAMP in some wells on the plate. […]

In test [3] the test system is HIT-T15 cells. Nature of the test: Stimulation of insulin secretion in HIT-T15 cells. It is filed as cell-based, hamster. The following applies: HIT-T15 cells exposed to 15 mM glucose; compared with forskolin; FIG. 4C. On the procedure:
D. Stimulation of Insulin Secretion in HIT-T15 Cells
It is known that stimulation of cAMP in HIT-T15 cells causes an increase in insulin secretion when the glucose concentration in the culture media is changed from 3 mM to 15 mM. Thus, RUP3 ligands can also be tested for their ability to stimulate glucose-dependent insulin secretion (GSIS) in HIT-T15 cells. In this assay, 30,000 cells/well in a 12-well plate are incubated in culture media containing 3 mM glucose and no serum for 2 hours. The media is then changed; wells receive media containing either 3 mM or 15 mM glucose, and in both cases the media contains either vehicle (DMSO) or RUP3 ligand at a concentration of interest. Some wells receive media containing 1 uM forskolin as a positive control. All conditions are tested in triplicate. Cells are incubated for 30 minutes, and the amount of insulin secreted into the media is determined by ELISA, using a kit from either Peninsula Laboratories (Cat #ELIS-7536) or Crystal Chem Inc. (Cat #90060).
In the first of these, RUP3 agonists are used to stimulate HIT-T15 cells, which express RUP3 at significant levels, as indicated in the Northern blot shown in FIG. 4A.

pIC50: −log10 of the molar value. Entries after “also recorded” stand apart in the source; their conditions may differ.

Five compounds from US8293751B2, “1,2,3-trisubstituted aryl and heteroaryl derivatives as modulators of metabolism and the prophylaxis and treatment of disorders related thereto such as diabetes and hyperglycemia” (Arena Pharmaceuticals, Inc., priority 2003, dated 2012) can be followed below.

As usually defined, the pIC50 is the IC50 on a negative log10 scale, so that one unit is a factor of ten.

As to extendin-4 [Ex-4, reference compound], the “blood glucose levels compared to vehicle control” value in test [1] is “significantly reduces glucose levels compared to vehicle control”. `CCOC(=O)C1CCN(c2ncnc(Oc3ccc(CCC(C)=O)cc3)c2[N+](=O)[O-])CC1` [Compound A51, 1-{5-Nitro-6-[4-(3-oxo-butyl)-phenoxy]-pyrimidin-4-yl}-piperidine-4-carboxylic acid ethyl ester]: in the test with isolated rat islets, the glucose-dependent insulin release entry is recorded as “enhanced glucose-dependent insulin release compared to control”. In the case of `CCCC1CCN(c2ncnc(Oc3ccc(C(=O)c4ccc(F)cc4)cc3)c2[N+](=O)[O-])CC1` [Compound A124, (4-Fluoro-phenyl)-{4-[5-nitro-6-(4-propyl-piperidin-1-yl)-pyrimidin-4-yloxy]-phenyl}-methanone], the negative-log IC50 (pIC50) at RUP3 was 6.62. For `CS(=O)(=O)c1ccc(Nc2ncnc(N3CCC(Sc4ccccc4)CC3)c2[N+](=O)[O-])cc1` [Compound B84, (4-Methanesulfonyl-phenyl)-[5-nitro-6-(4-phenylsulfanyl-piperidin-1-yl)-pyrimidin-4-yl]-amine], in the test on HIT-T15 cells [2], the “cAMP production in HIT cells” value is “stimulates cAMP production in HIT cells, at a level comparable to that seen with the adenyl cyclase activator forskolin”. This compound also showed a pIC50 against RUP3 of 7.30. For the same compound, in the test with HIT-T15 cells [3], the “insulin secretion in HIT cells” value was “stimulates insulin secretion in HIT cells exposed to 15 mM glucose, once again at a level comparable to that seen with the adenyl cyclas activator forskolin; also recorded: stimulates insulin secretion in HIT cells exposed to 15 mM glucose, at a level comparable to that seen with the adenylcyclase activator forskolin”. `CCOC(=O)C1CCN(c2ncnc(Oc3ccc(C4NC(=O)NC4=O)cc3)c2[N+](=O)[O-])CC1` (stereo not shown) [Compound A48, 1-{6-[4-(2,5-Dioxo-imidazolidin-4-yl)-phenoxy]-5-nitro-pyrimidin-4-yl}-piperidine-4-carboxylic acid ethyl ester]: the glucose-dependent insulin release result with isolated rat islets is given as “enhanced glucose-dependent insulin release compared to control”.
